# According to ChEMBL document CHEMBL1131835, “Synthesis and biological evaluation of conformationally restricted Gabapentin analogues” (Bioorg Med Chem Lett, 1999):
# Experiment: Displacement of [3H]gabapentin from alpha2-delta subunit of calcium channel
row,Compound,IC50 [nM]
1,O=C(O)C1NCC12CCCCC2 (configuration not stated),1500
3,O=C(O)C1CCNCC12CCCCC2 (configuration not stated),> 10000
4,O=C(O)[C@H]1CNCC12CCCCC2,120
5,O=C(O)[C@@H]1CNCC12CCCCC2,> 10000
6,O=C(O)C[C@]12CCCC[C@H]1CNC2,> 10000
7,O=C(O)C[C@]12CCCC[C@H]1NC2,> 10000
